Reference: EP0159881A2, “23-C-substituted mycaminosyl tylonolide” (ZAIDAN HOJIN BISEIBUTSU KAGAKU KENKYU KAI, priority 1984, dated 1985)
Values after ≈ are worked out from the molar mass of the structure shown. Where two headings read alike, the source gives them in different places.

Tests used:
Assay in all cases: minimum inhibitory concentration (MIC), antimicrobial activity
Assay type in all cases: cell-based
[1] = test system: Pseud. aeruginosa A3
Description: (§1) Concerning the antimicrobial activity of the compounds of this invention of the formula (I), minimum effective inhibitory concentrations (MIC) of the compounds are shown in the following Table.

[2] = test system: Sal.entiritidis 1891
Description: as §1

[3] = test system: B. Subtilis NRRL B-558
Description: as §1

[4] = test system: M. luteus PCI 1001
Description: as §1

[5] = test system: Staph. aureus Smith
Description: as §1

[6] = test system: Kl. pnueroniae PCI-602
Description: as §1

[7] = Pseudomonas aeruginosa, A3, Pseud. aeruginosa A3, read-out: MIC
[8] = Bacillus subtilis, NRRLB558, read-out: MIC
[9] = Micrococcus luteus, PCI1001, read-out: MIC
[10] = Staphylococcus aureus, read-out: MIC

Molecule	MIC ([1]; Pseud. aeruginosa A3)	MIC [2]	MIC [3]	MIC [4]	MIC [5]	MIC [6]	MIC [1, 7]	MIC ([2]; read-out: MIC)	MIC [3, 8]	MIC [4, 9]	MIC [5, 10]	MIC ([6]; read-out: MIC)
23-C-methylmycaminosyl tylonolide diethylacetal [2(2)]	12.5 µg/mL	3.12 µg/mL	0.78 µg/mL	<0.2 µg/mL	1.56 µg/mL	3.12 µg/mL						
CCC1OC(=O)CC(O)C(C)C(OC2OC(C)C(O)C(N(C)C)C2O)C(CC=O)CC(C)C(=O)/C=C/C(C)=C/C1C(C)O (single isomer, unassigned) [1(3), 23-C-methylmycaminosyl tylonolide]							12.5 µg/mL (≈ 20.4 µM)	3.12 µg/mL (≈ 5.1 µM)	0.78 µg/mL (≈ 1.27 µM)	< 0.2 µg/mL	1.56 µg/mL (≈ 2.55 µM)	3.12 µg/mL (≈ 5.1 µM)
CCC(O)C1/C=C(C)/C=C/C(=O)C(C)CC(CC=O)C(OC2OC(C)C(O)C(N(C)C)C2O)C(C)C(O)CC(=O)OC1CC (single isomer, unassigned) [4(2), 23-C-ethylmycaminosyl tylonolide]							6.25 µg/mL (≈ 9.99 µM)	3.12 µg/mL (≈ 4.99 µM)	0.39 µg/mL (≈ 0.623 µM)	< 0.2 µg/mL	0.78 µg/mL (≈ 1.25 µM)	6.25 µg/mL (≈ 9.99 µM)
C=CCC(O)C1/C=C(C)/C=C/C(=O)C(C)CC(CC=O)C(OC2OC(C)C(O)C(N(C)C)C2O)C(C)C(O)CC(=O)OC1CC (single isomer, unassigned) [8"F, 23-C-(2-propenyl)mycaminosyl tylonolide]							6.25 µg/mL (≈ 9.8 µM)	3.12 µg/mL (≈ 4.89 µM)	0.39 µg/mL (≈ 0.611 µM)	< 0.2 µg/mL	< 0.2 µg/mL	3.12 µg/mL (≈ 4.89 µM)
C=CC(O)C1/C=C(C)/C=C/C(=O)C(C)CC(CC=O)C(OC2OC(C)CC(N(C)C)C2O)C(C)C(O)CC(=O)OC1CC (single isomer, unassigned) [10"F, 4'-deoxy-23-C-vinylmycaminosyl tylonolide]								3.12 µg/mL (≈ 5.13 µM)	0.39 µg/mL (≈ 0.642 µM)	< 0.2 µg/mL	0.78 µg/mL (≈ 1.28 µM)	3.12 µg/mL (≈ 5.13 µM)
C#CC(O)C1/C=C(C)/C=C/C(=O)C(C)CC(CC=O)C(OC2OC(C)CC(N(C)C)C2O)C(C)C(O)CC(=O)OC1CC (single isomer, unassigned) [12"F, 4'-deoxy-23-C-ethinylmycaminosyl tylonolide]							3.12 µg/mL (≈ 5.15 µM)	3.12 µg/mL (≈ 5.15 µM)	0.78 µg/mL (≈ 1.29 µM)	< 0.2 µg/mL	0.78 µg/mL (≈ 1.29 µM)	1.56 µg/mL (≈ 2.58 µM)
CCC1OC(=O)CC(O)C(C)C(OC2OC(C)CC(N(C)C)C2O)C(CC=O)CC(C)C(=O)/C=C/C(C)=C/C1C(C)O (single isomer, unassigned) [Example 5(2), 4'-deoxy-23-C-methylmycaminosyl tylonolide]							25 µg/mL (≈ 42 µM)	3.12 µg/mL (≈ 5.24 µM)	0.39 µg/mL (≈ 0.655 µM)	< 0.2 µg/mL	0.39 µg/mL (≈ 0.655 µM)	1.56 µg/mL (≈ 2.62 µM)
CCC1OC(=O)CC(O)C(C)C(OC2OC(C)CC(N(C)C)C2O)C(CC=O)CC(C)C(=O)/C=C/C(C)=C/C1C(C)O (single isomer, unassigned) [Example 6, 4'-deoxy-23-C-methymycaminosyl tylonolide]	12.5 µg/mL (≈ 21 µM)	3.12 µg/mL (≈ 5.24 µM)	0.39 µg/mL (≈ 0.655 µM)	<0.2 µg/mL	0.39 µg/mL (≈ 0.655 µM)	3.12 µg/mL (≈ 5.24 µM)						
C#CC(O)C1C=C(C)C=CC(=O)C(C)CC(CC=O)C(OC2OC(C)C(O)C(N(C)C)C2O)C(C)C(O)CC(=O)OC1CC (centres unmarked) [11"F, 23-C-ethinylmycaminosyl tylonolide]	6.25 µg/mL (≈ 10.1 µM)	3.12 µg/mL (≈ 5.02 µM)	3.12 µg/mL (≈ 5.02 µM)	<0.2 µg/mL	1.56 µg/mL (≈ 2.51 µM)	3.12 µg/mL (≈ 5.02 µM)						
CC[C@H]1OC(=O)C[C@@H](O)[C@H](C)[C@@H](O[C@@H]2O[C@H](C)C[C@H](N(C)C)[C@H]2O)[C@@H](CC=O)C[C@@H](C)C(=O)/C=C/C(C)=C/[C@@H]1CO [DT, 4'deoxy mycaminosyl/ tylonolide, reference compound]	12.5 µg/mL (≈ 21.5 µM)	1.56 µg/mL (≈ 2.68 µM)	1.56 µg/mL (≈ 2.68 µM)	<0.2 µg/mL	0.39 µg/mL (≈ 0.67 µM)	1.56 µg/mL (≈ 2.68 µM)						
CC[C@H]1OC(=O)C[C@@H](O)[C@H](C)[C@@H](O[C@@H]2O[C@H](C)[C@@H](O)[C@H](N(C)C)[C@H]2O)[C@@H](CC=O)C[C@@H](C)C(=O)/C=C/C(C)=C/[C@@H]1CO [MT, mycaminosyl tylonolide]	25 µg/mL (≈ 41.8 µM)	3.12 µg/mL (≈ 5.22 µM)	3.12 µg/mL (≈ 5.22 µM)	<0.2 µg/mL	1.56 µg/mL (≈ 2.61 µM)	3.12 µg/mL (≈ 5.22 µM)						
